Consider 2 compounds from US20110269786A1, “TREATMENT OF MAJOR ADVERSE CARDIAC EVENTS AND ACUTE CORONARY SYNDROME IN DIABETIC PATIENTS USING SECRETORY PHOSPHOLIPASE A2 (SPLA2) INHIBITOR OR SPLA2 INHIBITOR COMBINATION THERAPIES” (priority 2010, published 2011).

The conditions of data set [1]: in vivo; cited from earlier work.
For data set [2] the following is noted: cited from earlier work.
Data set [3] is described as follows: Clinical trial in post-ACS subjects: MACE occurrence in ITT population. The following applies: at 16 weeks. The data set is classed as in vivo, human. Here is the method: A-002 was delivered in the form of two 250 mg tablets. In addition, all subjects received atorvastatin at 80 mg once daily via oral administration of a single tablet.
Subjects were randomized within 96 hours of hospital admission for an index ACS event, or within 96 hours of index ACS event diagnosis if already hospitalized. Prior to randomization, subjects were screened for pertinent medical history, and baseline levels of LDL and hs-CRP were measured. Baseline sPLA2 levels were also measured in a random subset of subjects. Percutaneous revascularization, if required or planned for a particular subject, was performed prior to randomization.
Subjects were excluded if they were receiving statin therapy at maximum recommended or tolerated dosage (i.e., 40-80 mg QD for atorvastatin, fluvastatin, lovastatin, pravastatin, or simvastatin, or 20-40 mg QD rosuvastatin) at the time of the index ACS event. […]
For purposes of this study, MACEs included all-cause mortality, non-fatal MI, documented UA requiring urgent hospitalization, revascularization occurring 60 days or more after the initial index ACS event, and non-fatal stroke. […] This final evaluation included at least a complete physical examination, a 12-lead ECG reading, measurement of LDL, hs-CRP, sPLA2, and IL-6 levels, and recordation of any MACEs during the study period.

For data set [4] the following is noted: 80 mg atorvastatin; subjects that had recently experienced an ACS event; cited from earlier work.
The nature of data set [5]: Clinical trial in post-ACS subjects: MACE occurrence in diabetic subpopulation. The following applies: cumulative at 16 weeks.
Procedure: 625 adult (18 years of age or older) human subjects who had recently experienced an index ACS event (UA, NSTEMI, or STEMI) were randomized to receive placebo or A-002 at 500 mg once daily via oral administration in a double-blinded manner. A-002 was delivered in the form of two 250 mg tablets. In addition, all subjects received atorvastatin at 80 mg once daily via oral administration of a single tablet.
Subjects were excluded if they were receiving statin therapy at maximum recommended or tolerated dosage (i.e., 40-80 mg QD for atorvastatin, fluvastatin, lovastatin, pravastatin, or simvastatin, or 20-40 mg QD rosuvastatin) at the time of the index ACS event. During the trial, subjects were prevented from using any lipid-lowering therapy other than 80 mg atorvastatin and/or A-002.
For purposes of this study, MACEs included all-cause mortality, non-fatal MI, documented UA requiring urgent hospitalization, revascularization occurring 60 days or more after the initial index ACS event, and non-fatal stroke. Subjects were evaluated at various timepoints after randomization and at study completion. Each evaluation included measurement of serum LDL levels and recordation of any MACEs or less severe adverse events occurring since the previous evaluation. In addition, certain evaluation periods included measurement of one or more of hs-CRP, sPLA2, IL-6, and/or other biomarker levels, vital signs, weight, and/or waist circumference. […] This final evaluation included at least a complete physical examination, a 12-lead ECG reading, measurement of LDL, hs-CRP, sPLA2, and IL-6 levels, and recordation of any MACEs during the study period.

Regarding `CCc1c(C(=O)C(N)=O)c2c(OCC(=O)OC)cccc2n1Cc1ccccc1` [A-002, [[3-(2-Amino-1,2-dioxoethyl)-2-ethyl-1-(phenylmethyl)-1H-indol-4-yl]oxy]acetic acid methyl ester], in data set [1], the “absorption and conversion to active molecule” value was “rapidly absorbed and hydrolyzed to the active A-001 molecule”; the “terminal half-life (t1/2)” value is given as “approximately ten”. Also, the “effect on total cholesterol, LDL-C, total LDL-C particle, and small LDL-C particle levels” value in data set [2] (once- or twice-daily administration, stable CVD population, diabetic and high baseline LDL-C subpopulations) is reported as “decreases”. Besides, in data set [2] (stable populations), the “effect on levels of inflammatory markers such as hs-CRP and sPLA2” value is recorded as “decreases”.
As for `CC(C)c1c(C(=O)Nc2ccccc2)c(-c2ccccc2)c(-c2ccc(F)cc2)n1CC[C@@H](O)C[C@@H](O)CC(=O)O` [Placebo (atorvastatin only), atorvastatin], in data set [3], the “% of subjects who experienced a MACE” value stood at 6.1%. Also, in data set [4], the “absolute reduction in death, non-fatal MI, cardiac arrest with resuscitation, or worsening symptomatic myocardial ischemia” value is given as 2.6% and the “relative reduction in death, non-fatal MI, cardiac arrest with resuscitation, or worsening symptomatic myocardial ischemia” value was 16%. Moreover, in data set [5], the “Death, % of subjects” value came out at 3.4%; the “Death, number of subjects” value was 3; the “MI, % of subjects” value was found to be 0.0%; the “MI, number of subjects” value is listed as 0. In data set [5], the “Revascularization ≧ 60 days, % of subjects” value was determined as 0.0%; the “Revascularization ≧ 60 days, number of subjects” value worked out at 0; the “Stroke, % of subjects” value came out at 0.0%; the “Stroke, number of subjects” value is reported as 0. In data set [5], the “Total MACEs, % of subjects” value is recorded as 6.9%; the “UA requiring hospitalization, % of subjects” value was determined as 3.4%; the “UA requiring hospitalization, number of subjects” value amounted to 3.
